Laboratory results taken from patent US20190225643A1, “NOVEL NUCLEOSIDE ANALOGS AND USE THEREOF IN THERAPEUTIC TREATMENT” (CORNELL UNIVERSITY, priority 2016, published 2019).
Where two headings read alike, the source gives them in different places.

Experiments:
IBL-1 (EBV+ DLBCL) = experiment: cells; assay type: cell-based
Protocol: (§1) Cell viability assays were performed by plating log-phase cells in RPMI complete media with 20% FBS at 1*10^5 cells/mL, with concentrations of 6-ETI or phospho-6-ETI ranging from 0.1 nM to 100 μM. ATP content at 24, 48 and 72 hours post-treatment was measured by the CellTiter-Glo kit (Promega, Madison, Wis.), or by Trypan blue assay as indicated. The LC50 for 6-ETI in each cell line was determined using online EC50 software at changbioscience.com or using GraphPad Prism to determine the LC50 for 6-ETI, phospho-6-ETI and nucleoside analogs in MM cell lines and primary MM patient samples.

BC3 (PEL) = experiment: cells; assay type: cell-based
Protocol: as §1

U266 (MM) = experiment: cells; assay type: cell-based
Protocol: as §1

[1] = system: BC3 cells treated with 6-ETI; experiment: 6-ETI viability curves after ADK inhibitor pre-treatment; assay type: cell-based, human; settings: pre-treatment with 1 μM ADK inhibitor
Protocol: as §1

ADK = ADK (Homo sapiens, UniProt P55263); settings: known values; read-out: IC50 of ADK inhibition in intact cells; cited from earlier work
PEL cell line = PEL cell line viability assay of C8-modified analogs; assay type: cell-based
Protocol: as §1

[2] = system: sensitive cell lines (expressing ADK at high levels); experiment: Viability in 6-ETI-sensitive cell lines; assay type: cell-based; settings: p6-ETI: sensitive ADK-high lines; c6-ETI: PEL, MM, colon and pancreatic adenocarcinoma lines
Protocol: as §1

[3] = system: colon (RKO, HCT116, DID1) and pancreatic (PA-TU-8988T) cancer cell lines; experiment: Viability of adenocarcinoma cell lines; assay type: cell-based
Protocol: as §1

[4] = system: BC3NFRen-luc #3 PEL xenograft; experiment: PEL xenograft model (BC3NFRen-luc #3 in NOD-SCID mice); assay type: in vivo; settings: 200 mg/kg for 9 days
Protocol: The BC3 in vivo xenograft model was set up as previously described (6). Essentially, ˜4-6 week old male NOD-SCID mice (Jackson Labs Stock# 001303) were injected intraperitoneally (I.P.) with 1*10^7 BC3NFRen-luc #3 cells and followed by in vivo imaging every three days. After imaging on day 5 to confirm establishment of the tumor, the mice were randomized to vehicle, low dose and high dose cohorts, with average tumor burden distributed evenly across the groups. Each dose cohort contained 10 mice. Mice were treated for nine days beginning at randomization with vehicle (PBS-Tween80), low dose 6-ETI (150 mg/kg/day), or high dose 6-ETI (300 mg/kg/day). Mice were treated with 200 mg/kg of the 6-ETI analogs (phospho-6ETI and 6-ETI cAMP) for 9 days. We monitored mice for tumor growth by live imaging and weighing, with sacrifice point determined to be a net gain or loss of 10% body weight over a week. Upon reappearance of refractory tumors, mice were re-treated for a further 9-day interval, and followed for a total of 100 days. Compound effects were assessed on overall survival, progression-free survival and tumor burden by Kaplan-Meier curves generated using GraphPad Prism software, and determined p values by 2-tailed analysis with log-rank tests.

[5] = system: MM cell lines JJN3, MM1S, U266 and CAG; experiment: CellTiter-Glo viability assay, MM cell lines; assay type: cell-based; settings: 48 hrs
Protocol: as §1

[6] = system: ADK-low resistant cell lines; experiment: Viability in ADK-low resistant cell lines; assay type: cell-based; settings: some lines, not all
Protocol: as §1

[7] = Homo sapiens, 48 h, read-out: LC50 IBL-1 (DLBCL)
[8] = Homo sapiens, 48 h, read-out: LC50 BC3 (PEL) in nM
[9] = Homo sapiens, U-266, 48 h, read-out: LC50 U266 (MM) in nM
[10] = Homo sapiens, 48 h, read-out: LC50 BC3 (PEL)
[11] = Homo sapiens, U-266, 48 h, read-out: LC50 U266 (MM)

Sequence of ADK (P55263 whole entry): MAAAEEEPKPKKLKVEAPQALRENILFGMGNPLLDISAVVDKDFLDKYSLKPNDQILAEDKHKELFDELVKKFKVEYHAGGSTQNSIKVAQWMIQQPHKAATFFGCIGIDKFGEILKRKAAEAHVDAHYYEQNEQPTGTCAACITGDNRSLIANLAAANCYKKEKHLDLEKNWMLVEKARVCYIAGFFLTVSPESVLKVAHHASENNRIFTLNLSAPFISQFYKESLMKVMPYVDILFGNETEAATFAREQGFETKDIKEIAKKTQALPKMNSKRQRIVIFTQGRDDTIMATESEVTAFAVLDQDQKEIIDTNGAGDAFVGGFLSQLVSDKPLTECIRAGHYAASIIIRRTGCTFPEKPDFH

Sc1ncnc2nc[nH]c12 [6-Mercaptopurine]
CC50 (IBL-1 (EBV+ DLBCL); [7]): > 100000 nM | CC50 (BC3 (PEL); [8]): 5140 nM | CC50 (U266 (MM); [9]): 10300 nM

Nc1ncnc2nc(-c3ccc(N4CCOCC4)nc3)cc(-c3cccc(Br)c3)c12 [ABT-702]
rescue from 6-ETI-induced cell death [1]: effectively rescued PEL cells from cell death | IC50 (ADK): 0.051 µM

CCSc1ncnc2c1nc(Br)n2[C@@H]1O[C@H](CO)[C@@H](O)[C@H]1O [Br group at C8 position, 8-bromo, 6-thioehtyl purine riboside]
IC50 (PEL cell line): 8.13 µM

CCSc1ncnc2c1nc(Cl)n2[C@@H]1O[C@H](CO)[C@@H](O)[C@H]1O [C1 group at C8 position, 8-chloro, 6-thioethyl purine riboside]
IC50 (PEL cell line): 1.41 µM

Nc1nc(Cl)nc2c1ncn2[C@H]1C[C@H](O)[C@@H](CO)O1 [Cladribine]
CC50 (IBL-1 (EBV+ DLBCL); Homo sapiens, 48 h, read-out: LC50 IBL-1 (DLBCL) in nM): 290 nM | CC50 (BC3 (PEL); [8]): 5240 nM | CC50 (U266 (MM); [9]): 29200 nM

Nc1ncnc2c1c(I)cn2[C@@H]1C[C@H](N)[C@@H](O)[C@H]1O [Compound A-134974]
rescue from 6-ETI-induced cell death [1]: effectively rescued PEL cells from cell death | IC50 (ADK): 0.05 µM

O=c1[nH]cnc2c1ncn2[C@H]1CC[C@@H](CO)O1 [Didanosine]
CC50 (IBL-1 (EBV+ DLBCL); [7]): > 100000 nM | CC50 (BC3 (PEL); [10]): > 100000 nM | CC50 (U266 (MM); [11]): > 100000 nM

Nc1nc(F)nc2c1ncn2[C@@H]1O[C@H](CO)[C@@H](O)[C@@H]1O [Fludarabine]
CC50 (IBL-1 (EBV+ DLBCL); 48 hours, CellTiter-Glo, read-out: LC50 IBL-1 (DLBCL)): 28900 nM | CC50 (BC3 (PEL); 48 hours, CellTiter-Glo, read-out: LC50 BC3 (PEL)): > 100000 nM | CC50 (U266 (MM); 48 hours, CellTiter-Glo, read-out: LC50 U266 (MM)): 90700 nM

CCSc1ncnc2c1nc(N=[N+]=[N-])n2C1OC(CO)C(O)C1O (stereo not shown) [N3 group at C8 position]
IC50 (PEL cell line): 1.13 µM

Nc1ncnc2c1ncn2[C@@H]1O[C@H](CO)[C@@H](O)[C@@H]1O [Vidarabine]
CC50 (IBL-1 (EBV+ DLBCL); [7]): > 100000 nM | CC50 (BC3 (PEL); [10]): > 100000 nM | CC50 (U266 (MM); [11]): > 100000 nM

CCSc1ncnc2c1ncn2[C@@H]1O[C@@H]2COP(=O)(O)OC2C1O (stereo partly shown) [c6-ETI]
effectiveness compared with 6-ETI [2]: equally as effective | LC50 [3]: nanomolar range | tumor growth in vivo [4]: effectively inhibited tumor growth in vivo

CCSc1ncnc2c1ncn2[C@@H]1O[C@H](COP(=O)(O)O)[C@@H](O)[C@H]1O [p6-ETI]
LC50 [5]: high nM range | effect on resistance of IBL-1 cells (IBL-1 (EBV+ DLBCL); IBL-1 express low levels of ADK, 48 hrs): partially overcomes resistance | effectiveness compared with 6-ETI [2]: equally effective as 6-ETI | LC50 [3]: nanomolar range | sensitivity of ADK-low resistant cell lines [6]: only partial sensitivity | tumor growth in vivo [4]: effectively inhibited tumor growth in vivo
